Laboratory results as given in article PMC9481563, “Structural insights into the pSer/pThr dependent regulation of the SHP2 tyrosine phosphatase in insulin and CD28 signaling” (Nature Communications, 2022).
Entries after “also recorded” stand apart in the source; their conditions may differ.

Experiments:
[1] = system: HEK293T cells co-transfected with IRS1-FLAG (wild-type or Ser/Ala mutant) and constitutive active SHP2; assay: Cell-based IRS1 Y612 phosphorylation assay (western blot) after insulin; set-up: species or system human
Experimental: HEK293T cells (#CRL-3216 ATCC, Manassas, VA USA) were maintained in DMEM (#41966029 Gibco, Waltham MA USA) supplemented with 10% FBS (#10500064 Gibco), 1% penicillin-streptomycin (#P0781-100ML Sigma, St. Louis MI USA) and 0.1% Amphotericin B (#15290026 Gibco). Cells were plated into 24-well plates in 7.5 × 10^4/well concentration and co-transfected with wild-type or Ser/Ala mutant pcDNA3.1-IRS1-FLAG and constitutive active pcDNA3.1-SHP2 plasmids using Lipofectamine 3000 (#L3000008 Invitrogen) reagent following the manufacturer’s instruction. After overnight serum-starvation cells were treated with 1 µM insulin (I9278, Sigma) for 0–30 min and harvested in Western sample buffer. Samples were run in 4–20% gradient gel (#4561096 BioRad, Hercules, CA USA) and transferred to nitrocellulose membrane using Transblot-Turbo System (#1704271 BioRad). Membranes were incubated in 1:5000 M2 anti-FLAG (#1804-200UG Sigma) and 1:1000 anti-pY612-IRS1 (#44-816 G Invitrogen) overnight and labelled with 1:10000 IRDye anti- mouse 680 (#92668070 LICOR Biosciences, Lincoln, NE USA) and 1:10.000 IRDye anti- rabbit 800 […] (#92632211 LICOR Biosciences) secondary antibodies. Membranes were scanned using the Odyssey CLx Fluorescence Imaging System (LICOR Biosciences, v5.2.5.).

SHP2 = SHP2 substrate sites, cutoff > 0.5 for genuine substrates; ref [1] Barr AJ et al., Cell 136, 352-63 (2009); cited from earlier work
Source text: page 80: Supplementary tables Peptide name Sequence Activity (Arb. u.) CADH2-Y785 […] 0.7 ERBB2-Y1248 […]- 0.6 PGFRB-Y751 […] 1 LCK-Y394 […] 1.3 CSK-Y184 […] 1.5 GHR-Y487 […] 0.8 TIE2-Y816 […] 1.2 ERBB2-Y1139 […] 1.2 WASP-Y290 […] 0.6 PAXI-Y118 […] 0.8 Supplementary table 1. SHP2 substrate sites derived from a large-scale comparative study with quantitative results. A cutoff of > 0.5 was applied to separate genuine SHP2 substrates from spurious signals. ...

[2] = system: wild-type SHP2 catalytic domain; assay: Capillary electrophoresis dephosphorylation assay, SHP2 catalytic domain; format: biochemical, human; details: for % nominal product: WT-SHP2 catalytic domain
Experimental: Phosphorylation and dephosphorylation assays with peptides were performed using capillary electrophoresis on an Agilent Capillary Electrophoresis ^3DCE system (Agilent Technologies, Waldbronn, Germany) applying DB-WAX coated silica capillary having a 33.5 cm total and 25 cm effective length with 50 μm I.D. (Agilent Technologies, Santa Clara, CA, USA). On-line absorption at 200 nm was monitored by DAD UV-Vis detector. The capillary was thermostated at 25 °C. Before measurements the capillary was rinsed subsequently with distilled water for 15 min and between measurements with BGE (100 mM trimethylamine-phosphate buffer (pH 2.5)) for 3 min. Samples were injected by 5 × 103 Pa pressure for 6 s. Runs were performed in the positive-polarity mode with 20 kV. […] The reaction was initialized by addition of the phosphatase enzyme. Kinase reactions were realized with the following buffer: 20 mM potassium phosphate (monobasic), 15 mM sodium phosphate (dibasic), 100 mM NaCl, 5 mM MgCl2, 5% glycerol, 0,05% non-ionic detergent IGEPAL, pH 7.5; reaction was started with the addition of 1 mM of ATP. Sampling from reactions was done in real time, except when conditions required pre-concentration of samples (with PTP1B only). In the latter case, reactions were run in 15 ml Falcon tubes, using an NH4HCO3-based buffer (100 mM end concentration), with 5 nM enzyme. After heat inactivation (10 min at 75 °C), the latter samples were lyophilized until dry and reconstituted in 40 ul distilled H2O. Kinetic curves in the article are always presented with exponential fits (that approximate the integrated Michaelis-Menten functions decently on the measured time intervals).

[3] = system: tyrosine kinase domain of the human insulin receptor (InsR); assay: Capillary electrophoresis phosphorylation assay, InsR kinase domain; format: biochemical; details: CE assay, effect of pSer vs non-phosphorylated peptide of the pair; 1 mM ATP, pH 7.5; n = 1
Experimental: Ni-NTA purified stocks were subjected to anion exchange chromatography using an Äkta explorer instrument (Amersham Pharmacia) and Resource Q columns (GE healthcare). Prior to anion exchange, all proteins were dialyzed overnight against a low salt buffer (10–50 mM NaCl, 20 mM TRIS [pH = 8.0], 10% glycerol and 1 mM 1,4-dithiothreitol [DTT]) using a Servapor MWCO 12,000–14,000 membrane. Proteins loaded onto the column were eluted using a salt gradient up to 1 M NaCl over 30 min. Purity of proteins was assessed by SDS-PAGE and final samples were typically found to have >95% purity (see Supplementary figs. 85, 86). The protein aliquots were snap-frozen in liquid nitrogen and stored in −80 °C. […]
Phosphorylation and dephosphorylation assays with peptides were performed using capillary electrophoresis on an Agilent Capillary Electrophoresis ^3DCE system (Agilent Technologies, Waldbronn, Germany) applying DB-WAX coated silica capillary having a 33.5 cm total and 25 cm effective length with 50 μm I.D. (Agilent Technologies, Santa Clara, CA, USA). On-line absorption at 200 nm was monitored by DAD UV-Vis detector. […] Kinetic curves in the article are always presented with exponential fits (that approximate the integrated Michaelis-Menten functions decently on the measured time intervals).

[4] = 19 min, average of 3 replicates
[5] = 35 min, average of 3 replicates

Substance: wt
- pY612-IRS1/FLAG ratio, Median value ([1]; Supp Fig 13, baseline analysis, median of 12): 0.0394
- pY612-IRS1/FLAG ratio, Median value ([1]; Supp Fig 13, time course analysis, 0 min, median of 10): 0.0379
- pY612-IRS1/FLAG ratio, Median value ([1]; Supp Fig 13, time course analysis, 15 min, median of 10): 0.4550
- pY612-IRS1/FLAG ratio, Median value ([1]; Supp Fig 14, baseline analysis, median of 3): 0.0140

Substance: TVAAQDEFYRSGWALNM [CSK-Y184, SHP2 substrate site peptide from a large-scale comparative study]
- Activity (Arb. u.) (SHP2): 1.5 Arb. u.

Substance: GGGEEDQDYDLSQLQQP [CADH2-Y785, SHP2 substrate site peptide from a large-scale comparative study]
- Activity (Arb. u.) (SHP2): 0.7 Arb. u.

Substance: RVGEEEHVYSFPNKQKS [PAXI-Y118, SHP2 substrate site peptide from a large-scale comparative study]
- Activity (Arb. u.) (SHP2): 0.8 Arb. u.

Substance: DAETSKLIYDFIEDQGG [WASP-Y290, SHP2 substrate site peptide from a large-scale comparative study]
- Activity (Arb. u.) (SHP2): 0.6 Arb. u.

Substance: ARLIEDNEYTAREGAKF [LCK-Y394, SHP2 substrate site peptide from a large-scale comparative study]
- Activity (Arb. u.) (SHP2): 1.3 Arb. u.

Substance: HPPEPK{pSer}PGE{pTyr}VNIEFGS [ppRev-IRS1, IRS1 Y896 peptide with pSer in addition to pTyr, for dephosphorylation assays]
- tyrosine dephosphorylation rate (in words) ([2]; CE assay, substrate 50 μM, enzyme 25 nM, 50 mM TRIS, 150 mM NaCl, 1 mM EDTA, 2 mM DTT, IGEPAL 0.1%, pH 7.4): superior reaction rates; also recorded: greatly enhanced
- % nominal product [2, 4]: 47.8%
- % nominal product ([2]; 19 min, replicate 01): 47.7%
- % nominal product ([2]; 19 min, replicate 02): 59.3%
- % nominal product ([2]; 19 min, replicate 03): 36.5%
- % nominal product [2, 5]: 52.8%
- % nominal product ([2]; 35 min, replicate 01): 58.7%
- % nominal product ([2]; 35 min, replicate 02): 60.4%
- % nominal product ([2]; 35 min, replicate 03): 39.2%
- % nominal product ([2]; 51 min, average of 3 replicates): 55.2%
- % nominal product ([2]; 51 min, replicate 01): 60.3%
- % nominal product ([2]; 51 min, replicate 02): 61.2%
- % nominal product ([2]; 51 min, replicate 03): 44.1%

Substance: KNNPDPTIYPVLDWNDI [TIE2-Y816, SHP2 substrate site peptide from a large-scale comparative study]
- Activity (Arb. u.) (SHP2): 1.2 Arb. u.

Substance: HPPEPKSPGE{pTyr}VNIEFGS [p0Rev-IRS1, IRS1 Y896 peptide, phosphotyrosine-only, used for dephosphorylation assays]
- % nominal product [2, 4]: 2.9%
- % nominal product ([2]; 19 min, replicate 01): 4.9%
- % nominal product ([2]; 19 min, replicate 02): 4.1%
- % nominal product ([2]; 19 min, replicate 03): -0.2%
- % nominal product [2, 5]: 2.1%
- % nominal product ([2]; 35 min, replicate 01): 2.3%
- % nominal product ([2]; 35 min, replicate 02): 1.9%
- % nominal product ([2]; 35 min, replicate 03): 2.2%
- % nominal product ([2]; 51 min, replicate 01): 8.3%
- % nominal product ([2]; 51 min, replicate 02): 2.0%
- % nominal product ([2]; 51 min, replicate 03): 1.3%

Substance: LTCSPQPEYVNQPDVRP [ERBB2-Y1139, SHP2 substrate site peptide from a large-scale comparative study]
- Activity (Arb. u.) (SHP2): 1.2 Arb. u.

Substance: TPTAENPEYLGLDVPV- [ERBB2-Y1248, SHP2 substrate site peptide from a large-scale comparative study]
- Activity (Arb. u.) (SHP2): 0.6 Arb. u.

Substance: SSLSNIDFYAQVSDITP [GHR-Y487, SHP2 substrate site peptide from a large-scale comparative study]
- Activity (Arb. u.) (SHP2): 0.8 Arb. u.

Substance: HPPEPK{pSer}PGEYVNIEFGS [0pRev-IRS1, IRS1 Y896 motif peptide with −4 pSer only]
- tyrosine phosphorylation by InsR kinase (in words) [3]: altered kinetics to a very limited degree; also recorded: no major differences

Substance: GRKGSGDYMPM{pSer}PKS [0pIRS1, IRS1 Y632 peptide with pSer only, InsR kinase substrate]
- tyrosine phosphorylation by InsR kinase (in words) [3]: failed to indicate any major effect; also recorded: altered kinetics to a very limited degree

Substance: MSKDESVDYVPMLDMKG [PGFRB-Y751, SHP2 substrate site peptide from a large-scale comparative study]
- Activity (Arb. u.) (SHP2): 1 Arb. u.
